Results published in article PMC7845692 (Frontiers in Pharmacology, 2020).
Where two headings read alike, the source gives them in different places.

Tests used:
[1] = system: Human coronavirus OC43; assay: HCoV-OC43 immunofluorescent assay (IFA) against N protein in HCT-8 cells; format: cell-based; conditions: for EC50: read-out: Human coronavirus OC43 EC50 (IFA); for Human coronavirus OC43 Selectivity index: CC50/EC50, HCT-8 cells
[2] = system: Feline infectious peritonitis virus; assay: anti-FIPV activity, cytopathic effect by visualization in Fcwf-4 cells; conditions: for EC50: Alphacoronavirus 1, read-out: Feline infectious peritonitis virus EC50 CPE/visualization
Method: (§2) The serotype II FIPV Taiwan isolate NTU156 strain, a kind gift from National Taiwan University, was propagated and titrated in Fcwf-4 cells ([Lin et al., 2009]). The EC50 for anti-FIPV activity and CC50 for cell cytotoxicity were determined as previously described ([Yang et al., 2020b]).

[3] = system: SARS-CoV-2; assay: microbe, parasite or virus in culture; format: cell-based; conditions: Severe acute respiratory syndrome coronavirus 2, Vero C1008; Vero E6 cells, 5–7 days, Figure 5B-b; read-out: SARS-CoV-2 plaque assay EC50
[4] = in vitro; conditions: human
[5] = HCT-8 cell viability (MTS); conditions: human
[6] = cell cytotoxicity by visualization (FIPV host cells); conditions: cat
Method: as §2

[7] = system: HCoV-OC43; assay: HCoV-OC43 viral yield, end point dilution assay / TCID50; format: cell-based, Human coronavirus OC43
[8] = system: HCoV-229E; assay: HCoV-229E viral RNA (ORF1, ORF N) by semi-RT-qPCR in MRC-5 cells; format: cell-based, Human coronavirus 229E; conditions: MRC-5, MOI 1, 30 h.p.i., 10–300 nM, dose dependent
Method: These experiments were performed as described ([Yang et al., 2007b]). Mock or HCoV-229E infected (MOI of 1) lysates were processed and prepared at 30 h.p.i. without or with compound treatment. The total RNA was extracted with TRIzol reagent (Invitrogen). The relative viral RNA expression levels were determined by semi-RT-qPCR, analyzed with the ImageJ Analyzer program (http://imagej.nih.gov/ij/index.html), and normalized with the housekeeping gene GAPDH. The primers used to amplify the PCR products were 5′-GGCGAGGTGGAATTTGTTTA-3′ and 5′-ACCTTTAAGCCACCATGTGC-3′ for ORF1; 5′-TCTGCCAAGAGTCTTGCTCG-3′ and 5′-AGCATAGCAGCTGTTGACGG-3′ for ORF N. The amplification of target cDNA was conducted under the following conditions: 25 cycles of 95°C for 30 s, 55°C for 20 s, and 72°C for 30 s for ORF N; 29 cycles of 95°C for 30 s, 55°C for 20 s, and 72°C for 30 s for ORF1, and 35 cycles of 95°C for 30 s, 55°C for 20 s, and 72°C for 30 s for GAPDH. The final PCR products were subjected to electrophoresis on 2% agarose gel containing ethidium bromide along with DNA markers.

[9] = system: SARS-CoV-2; assay: SARS-CoV-2 cytopathic effect by visualization in Vero E6 cells; format: cell-based; conditions: Severe acute respiratory syndrome coronavirus 2, Vero C1008, read-out: SARS-CoV-2 EC50 CPE/visualization
Method: (§1) CPE was performed as described ([Wu et al., 2004]). For IFA, Vero E6 cells (BCRC number: 60476; derived from ATCC CRL-1586) were treated with each compound at the indicated concentration for 1 h at 37°C. The cells were adsorbed with SARS-CoV-2 (TCDC#4) (sequence available on the GISAID website) at an MOI = 0.01 for 1 h at 37°C. After virus adsorption, the cells were washed with PBS and fresh medium containing each compound at the indicated concentration was added. After 2 days, cells were fixed with 4% paraformaldehyde and permeabilized with 0.5% Triton X-100. The cells were stained with anti-SARS-CoV-2 N protein antibody, provided by Dr. An-Suei Yang of the Genomics Research Center, Academia Sinica, and goat anti-human IgG-Alexa Fluor 488 (A11013, Invitrogen) (in green). The nuclei were counter stained with DAPI (in blue) (D1306, Invitrogen). The N protein expression was measured using a high-content image analysis system (Molecular Devices). The cell viability was determined by Cell Counting Kit-8 (CCK-8) (Sigma-Aldrich, cat #96992). EC50 and CC50 values were calculated by Prism software.

[10] = Vero E6 cytotoxicity by visualization; format: cell-based; conditions: African green monkey, Vero E6 cells; read-out: SARS-CoV-2 CC50 Visualization
Method: as §1

[11] = system: SARS-CoV-2; assay: SARS-CoV-2 IFA against N protein in Vero E6 cells; format: cell-based
Method: as §1

[12] = Vero E6 cell viability (CCK-8); format: cell-based; conditions: African green monkey, Vero E6 cells; read-out: SARS-CoV-2 CC50 CCK-8
Method: as §1

[13] = in vitro; conditions: human, MRC-5 cells
[14] = system: HCoV-229E; assay: HCoV-229E viral yield, end point dilution assay / TCID50; conditions: MRC-5, MOI 0.05
[15] = system: Human coronavirus 229E; assay: HCoV-229E cytopathic effect, crystal violet absorbance in MRC-5 cells; conditions: CC50/EC50, MRC-5 cells
[16] = at concentrations of up to 50 μM
[17] = Betacoronavirus 1, OC43, HCT-8, 72 h
[18] = Betacoronavirus 1, OC43, HCT-8 cells, MOI 0.05, 72 h.p.i., means ± SD
[19] = HCT-8, MOI 0.05, reduction ∼2–3 orders of magnitude

| SMILES | EC50 [1, 17] | Human coronavirus OC43 Selectivity index [1] | CC50 [6] | EC50 [2] | Feline infectious peritonitis virus Selectivity index ([2]; CC50/EC50, Fcwf-4 cells) | EC50 [1, 18] | CC50 [4] | also measured |
| --- | --- | --- | --- | --- | --- | --- | --- | --- |
| C[C@]12CC[C@H](O)C[C@H]1CC[C@@H]1[C@@H]2CC[C@]2(C)[C@@](O)(c3ccoc3)CC[C@]12O [rostafuroxin] | – | – | – | – | – | – | – | inhibitory activity against HCoV-OC43 [1, 16]: did not exhibit any inhibitory activity; inhibitory activity against FIPV [2, 16]: did not exhibit any inhibitory activity |
| N#C[C@@]1(c2ccc3c(N)ncnn23)O[C@H](CO)[C@@H](O)[C@H]1O [GS441524, GS-441524] | 6930 nM | >7.2 | – | – | – | – | – | EC50 [3]: 860 ± 29.2 nM; CC50 at 72 h [4]: > 50000 nM |
| COc1cc2c3c(c4cc(OC)c(OC)c(OC)c4c2cc1OC)CC1CCC[N+]1([O-])C3 (centres unmarked) [031p13-3] | 1890 ± 228 nM | >5.3 | > 50000 nM | 1560 nM | >32.1 | – | – | CC50 at 72 h ([5]; HCT-8 cells): > 10000 nM |
| CCN1CCc2c(c3cc(OC)c(OC)cc3c3cc(OC)ccc23)C1 [dbq29a] | 213 ± 62 nM | >46.9 | 4310 ± 1120 nM | 352 ± 77 nM | 12.3 | – | – | CC50 at 72 h ([5]; HCT-8 cells): > 10000 nM |
| CO[C@H]1C[C@H](O[C@H]2CC[C@@]3(C)[C@H](CC[C@@H]4[C@@H]3CC[C@]3(C)[C@@H](C5=CC(=O)OC5)[C@@H](OC(C)=O)C[C@]43O)C2)O[C@@H](C)[C@@H]1O [Oleandrin, oleandrin] | – | 3.8 | 2850 ± 1070 nM | 729 ± 244 nM | 3.9 | 56 ± 5 nM | 211 ± 62 nM | maximum reduction of HCoV-OC43 viral yield [7]: 2–3 orders of magnitudes; concentration of maximum reduction of HCoV-OC43 viral yield [7, 19]: 30 nM |
| C[C@H]1O[C@@H](O[C@H]2[C@@H](O)C[C@H](O[C@H]3[C@@H](O)C[C@H](O[C@H]4CC[C@@]5(C)[C@H](CC[C@@H]6[C@@H]5C[C@@H](O)[C@]5(C)[C@@H](C7=CC(=O)OC7)CC[C@]65O)C4)O[C@@H]3C)O[C@@H]2C)C[C@H](O)[C@@H]1O [Digoxin, digoxin] | – | 5.2 | 1190 ± 603 nM | 212 ± 96 nM | – | 269 ± 45 nM | 1400 ± 350 nM | Feline infectious peritonitis virus Selectivity index [2]: 5.6 |
| CCC(CC)COC(=O)[C@H](C)N[P@](=O)(OC[C@H]1O[C@@](C#N)(c2ccc3c(N)ncnn23)[C@H](O)[C@@H]1O)Oc1ccccc1 [Remdesivir] | 947 ± 320 nM | >52.8 | – | – | – | – | > 50000 nM | EC50 [3]: 647 ± 16.7 nM |
| C[C@]12CC[C@H](O)C[C@H]1CC[C@@H]1[C@@H]2CC[C@]2(C)[C@@H](C3=CC(=O)OC3)CC[C@]12O [Digitoxigenin, digitoxigenin] | 323 ± 20 nM | >7.7 | 3560 ± 375 nM | 458 ± 18 nM | 7.8 | – | – | CC50 at 72 h [5]: > 2500 nM |
| COc1cc2c3c(c4cc(OC)c(OC)cc4c2cc1OC)CN1CCCCC1C3 (centres unmarked) [PQ09] | 52 ± 6 nM | >193 | 3090 ± 886 nM | 17 ± 6 nM | 182.0 | – | – | CC50 at 72 h ([5]; HCT-8 cells): > 10000 nM |
| C[C@@H]1O[C@@H](O[C@H]2C[C@@H](O)[C@]3(CO)[C@H]4[C@H](O)C[C@]5(C)[C@@H](C6=CC(=O)OC6)CC[C@]5(O)[C@@H]4CC[C@]3(O)C2)[C@H](O)[C@H](O)[C@H]1O [Ouabain, ouabain] | – | 7.1 | 6250 ± 2160 nM | 1560 nM | 4.0 | 71 ± 7 nM | 504 ± 11 nM | maximum reduction of HCoV-OC43 viral yield [7]: 2–3 orders of magnitudes; concentration of maximum reduction of HCoV-OC43 viral yield [7, 19]: 10 nM |
| C[C@]12CC[C@H](O)C[C@H]1CC[C@@H]1[C@@H]2CC[C@]2(C)[C@@H](c3ccc(=O)oc3)CC[C@]12O [Bufalin, bufalin, reference compound] | 56 ± 4 nM | 16.1 | 542 ± 213 nM | 19 ± 9 nM | 28.5 | – | – | concentration of maximum reduction of HCoV-OC43 viral yield [7]: 100 nM; maximum reduction of HCoV-OC43 viral yield [7]: 2–3 orders of magnitudes; CC50 at 72 h [5]: 900 ± 180 nM |
| COc1cc2c3c(c4cc(OC)c(OC)cc4c2cc1OC)CN1CCCC1C3 (centres unmarked) [PI09] | – | >147 | 6380 ± 2250 nM | 62 ± 25 nM | 102.8 | 68 ± 3 nM | > 10000 nM | complete reduction of HCoV-OC43 viral yield [7]: 7–8 log of magnitudes; concentration accomplishing complete reduction of HCoV-OC43 viral yield ([7]; HCT-8, MOI 0.05, reduction ∼7–8 log): 300 nM; effect on HCoV-229E viral genome replication and subgenomic viral RNA syntheses (RT-PCR ORF1, ORF N) [8]: inhibited HCoV-229E viral genome replication and subgenomic viral RNA syntheses; EC50 [9]: 78 nM; CC50 [10]: 5000 nM; SARS-CoV-2 Selectivity index (IFA/CCK-8) ([11]; CC50/EC50, Vero E6 cells): 46; EC50 ([11]; Severe acute respiratory syndrome coronavirus 2, Vero C1008, 48 h, read-out: SARS-CoV-2 EC50 IFA, Vero E6 cells, MOI 0.01, 2 d.p.i., N protein): 77 nM; EC50 ([11]; read-out: SARS-CoV-2 EC50 IFA, Vero E6 cells, MOI 0.01, 2 d.p.i., N protein): 76.8 nM; CC50 [12]: 3550 nM; CC50 [13]: 6640 nM; complete reduction of HCoV-229E viral yield ([14]; at 100, 300 and 600 nM respectively (dbq33b, dbq33b4p7, PI09)): 6–7 log of magnitudes; concentration giving complete reduction of HCoV-229E viral yield ([14]; reduction 6–7 log): 600 nM; Human coronavirus 229E Selectivity index [15]: 93 |
